Source: patent US6753150B2, “Method for determining whether a compound is capable of inhibiting the interaction of a peptide with rage” (The Trustees of Columbia University in the City of New York, priority 1998, dated 2004)
Values belong to the molecule of their own block, whether it stands above or below them.

Tests used:
sRAGE [1] = target: T1, sRAGE (Homo sapiens, UniProt Q15109); assay: Radioligand competition: 125I-sRAGE (100 nM) binding to immobilized CML-BSA with competitors; details: competitor in excess
T1 construct: full length soluble RAGE (100 nM; specific activity 7,000-8,000 cpm/ng)
T1 sequence (Q15109 23-342 limits assumed): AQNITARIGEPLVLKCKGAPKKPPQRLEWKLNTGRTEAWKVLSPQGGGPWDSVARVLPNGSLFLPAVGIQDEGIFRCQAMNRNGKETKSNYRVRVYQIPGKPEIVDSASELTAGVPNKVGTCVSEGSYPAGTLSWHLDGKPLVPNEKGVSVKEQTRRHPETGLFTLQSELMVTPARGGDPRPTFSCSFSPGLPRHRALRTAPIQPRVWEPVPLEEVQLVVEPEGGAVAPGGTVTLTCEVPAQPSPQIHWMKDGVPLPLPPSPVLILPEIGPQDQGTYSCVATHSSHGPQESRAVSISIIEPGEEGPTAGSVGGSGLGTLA
Method: Radioligand binding studies: competition experiments. CML-BSA was immobilized to wells; binding was performed with ^125-I sRAGE (100 nM) with the indicated competitors. […] Percent maximal binding is reported compared to binding to immobilized CML-BSA without competitor (100%).
Radioligand binding studies: CML-adducts interact with the V-type Ig domain of RAGE. CML-BSA was immobilized to wells; binding was performed with ^125-I sRAGE (100 nM) in the presence or absence of excess unlabelled (100-fold) V-type Ig domain, C1 Ig domain or C2 Ig domain. Percent maximal binding is reported compared to binding to immobilized CML-BSA without competitor (100%).
Radioligand binding assays. […] All materials were devoid of endotoxin using the Detoxi-gel system (PIERCE®) and tested for negativity in the limulus amebocyte assay (SIGMA®). Gas chromatography-mass spectroscopy and HPLC analyses were performed and verified the identity of the prepared AGES. Specific AGE or control protein (5 μg) was loaded onto the wells of a NUNC MAXISORP® dish in sodium bicarbonate/sodium carbonate buffer (pH 9.8) overnight at 4° C. […] The material retrieved was then counted in a gamma counter (LKB). […]
Radioligand binding studies. […] Radioligand binding assays were performed as described and equilibrium binding data was analyzed according to the equation of Klotz and Hunston.

RAGE = RAGE (Homo sapiens, UniProt Q15109); assay: Binding of CML-modified proteins to immobilized RAGE (Example 2); details: for Kd: dose-dependent and saturable
Chain of RAGE (Q15109 23-404): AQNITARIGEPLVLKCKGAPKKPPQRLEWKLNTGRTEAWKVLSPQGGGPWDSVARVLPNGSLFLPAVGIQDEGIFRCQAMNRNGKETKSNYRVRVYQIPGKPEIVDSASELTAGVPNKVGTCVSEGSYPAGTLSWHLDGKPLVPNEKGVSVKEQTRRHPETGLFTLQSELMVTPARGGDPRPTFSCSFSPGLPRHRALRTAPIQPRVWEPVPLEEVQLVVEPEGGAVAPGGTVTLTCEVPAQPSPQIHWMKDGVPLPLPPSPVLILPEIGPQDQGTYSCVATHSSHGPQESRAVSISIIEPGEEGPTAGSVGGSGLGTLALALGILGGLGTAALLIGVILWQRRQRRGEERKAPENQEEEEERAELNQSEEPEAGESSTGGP
Text: (§1) Advanced glycation endproducts (AGEs) are heterogeneous compounds that form in hyperglycemia, highly-oxidized environments and renal failure. AGEs accumulate in the plasma and tissues of patients with diabetes; their presence has been linked to the development of medical complications. Interaction of AGEs with Receptor for AGE ([…]) activates cells such as endothelial cells (Ecs) and monocytes (Mps) in a manner favoring the development of vascular/inflammatory cell complications. AGEs consist of structures such as carboxymethyl-lysine and pentosidine (both free and protein-bound forms). To begin to delineate which AGE forms interact with RAGE, we prepared free CML and pentosidine, as well as CML- and pentosidine bovine serum albumin (BSA) and ovalbumin (OVA).

sRAGE [2] = target: T1, sRAGE; assay: Radioligand binding of 125I-sRAGE to immobilized AGE-modified proteins (dose response); details: for specific binding to sRAGE/RAGE: immobilized AGE-protein, 125I-sRAGE
Method: Radioligand binding studies: dose response experiments. CML- or pentosidine BSA (5 μg) was immobilized to plastic wells and radioligand binding assays performed with increasing concentrations of purified ^125-I sRAGE +/− excess unlabelled sRAGE (50-fold molar excess). Bound tracer was eluted with buffer containing NP40 (1%) and NaCl (0.15M) and the data subjected to analysis as described in the Experimental Details section.
Radioligand binding assays. […] All materials were devoid of endotoxin using the Detoxi-gel system (PIERCE®) and tested for negativity in the limulus amebocyte assay (SIGMA®). […] Specific AGE or control protein (5 μg) was loaded onto the wells of a NUNC MAXISORP® dish in sodium bicarbonate/sodium carbonate buffer (pH 9.8) overnight at 4° C. The following morning, wells were aspirated and blocked with phosphate buffered saline (with calcium/magnesium) containing bovine serum albumin (1%) for two hrs at 37° C. Wells were then washed once with phosphate buffered saline (without calcium/magnesium) containing Tween 20 (0.05%); 0.150 ml/well. A radioligand binding assay was then performed in phosphate buffered saline containing 0.2% bovine serum albumin for 2 hrs at 37° C. utilizing radiolabelled (^125I; using Iodogen (Pierce)) full length soluble RAGE (100 nM; specific activity 7,000-8,000 cpm/ng) in the presence or absence of unlabelled soluble RAGE (50×molar excess) or the indicated molar excess of competitor. Wells were then eluted after washing as above with buffer containing NP-40 (1%) and NaCl (0.15M). The material retrieved was then counted in a gamma counter (LKB). In certain experiments, antibodies or excess soluble RAGE were employed as indicated to test their ability to compete in the indicated assays.
Radioligand binding studies. […] Radioligand binding assays were performed in which CML-BSA, pentosidine-BSA or methylglyoxal-human serum albumin was adsorbed to plastic wells. Radioligand binding assays were performed as described and equilibrium binding data was analyzed according to the equation of Klotz and Hunston.

NF-κB [3] = assay: NF-κB activation in monocytes (MPs) (Example 2); assay type: cell-based
Text: as §1

VCAM-1 = assay: Infusion into normal mice, Northern analysis of VCAM-1 mRNA in lung; assay type: in vivo; details: 100 μg infused into CD1 mice, six hrs, Northern blot
Method: FIG. 7. In vivo studies: infusion of CML-BSA into mice modulates […] expression. CML-BSA (lane 2) or native BSA (lane 1) (both 100 μg) was infused into normal CD1 mice. LPS (100 μg) was infused as positive control (lane 3). Six hrs later, mice were humanely sacrificed and lungs rapidly removed for preparation of RNA. Northern analysis was performed as described above for VCAM-1; membranes were then stripped and reprobed with ^32-P-labelled cDNA for G3PDH.
Northern blot analysis. Northern blot analysis for VCAM-1 and G3PDH were performed as previously described (19).
Infusion of CML-BSA into normal mice increases mRNA for Vascular Cell Adhesion Molecule-1.

[4] = system: human peripheral blood-derived mononuclear phagocytes; assay: Monocyte chemotaxis assay in modified chemotaxis chambers; assay type: cell-based; details: mediator in lower wells, three hrs
Method: FIG. 5. Cellular activation studies: mononuclear phagocytes. Human monocytes (5×10^4) were placed in the upper wells of modified chemotaxis chambers with the indicated mediators in the lower wells for three hrs. Membranes were then stained with Giemsa and cells that migrated through the membrane toward the chemotactic stimulus counted per hpf.
Chenotaxis assays. Chemotaxis assays, performed in 48-well microchemotaxis chambers (Neuro-Probe) containing polycarbonate membranes were performed as previously described (15). In these studies, human peripheral blood-derived mononuclear phagocytes, which bear cell surface RAGE, were employed.
Mononuclear phagocytes. To determine if CML-ovalbumin mediated increased human peripheral blood-derived monocyte chemotaxis, experiments were performed in modified chemotaxis chambers as described above.

NF-κB [5] = assay: Electrophoretic mobility shift assay for NF-κB in endothelial cells; assay type: cell-based, human; details: for nuclear translocation / activation of NF-κB in HUVEC: 6 hrs, AGEs at 50 μg/ml; for activation of NF-κB in Ecs: Example 2
Method: FIG. 6. Electrophoretic mobility shift assay. Human umbilical vein endothelial cells (HUVEC) were incubated with mediators for 6 hrs; nuclear extracts were prepared and electrophoretic mobility shift assays performed with ^32P-labelled probe for NF-κB. Lanes contain mediators as above (all AGEs were added at 50 μg/ml). Lanes contain: lane 1, CML-ovalbumin; lane 2, native ovalbumin; lane 3, pentosidine ovalbumin; lane 4, nonimmune IgG and CML ovalbumin; lane 5, anti-RAGE IgG: 7 μg/ml; lane 6; anti-RAGE IgG: 70 μg/ml; lane 7: CML-ovalbumin/100-fold excess unlabelled NF-κB. Supershift assays (lane 8: anti-p50 IgG; lane 9:anti-p65 IgG; lane 10:both anti-p50 IgG and anti-p65 IgG; lane 11: preimmune IgG), all + CML-ovalbumin. Lane 12:CML-ovalbumin: vector alone/13:tail-deleted RAGE.
Electrophoretic mobility shift assays (EMSA). Nuclear extracts were prepared from HUVECs by the method of Schreiber (33). Protein concentration was determined using the Bradford reagent (BIO-RAD®). Double-stranded oligonucleotides representing a portion of the human VCAM-1 promoter containing an NF-κB site were synthesized (Life Technologies). Oligonucleotides were used as probe as follows: NF-κB: 5′[…]3′ (SEQ ID No. 1). Probes were 5′-end labelled with g-[^32P] ATP and polynucleotide kinase. Each reaction contained 10 fmol of probe and 2-5 microliter (1.5 μg) of nuclear extract. Binding reactions were performed in buffer as previously described (19). Complexes were resolved on nondenaturing polyacrylamide gels (6%) in tris (50 mM), borate (45 mM), and EDTA (0.5 mM), ([…]; final pH 7.5). Samples were subjected to electrophoresis for 2 hrs at 10 V/cm. For supershift assays, complexes were preincubated with anti-p65 IgG, anti-p50 IgG or both together, or nonimmune IgG (7.5 μg/ml; 2 hrs 37° C.) in a total reaction volume of 20 μl.
We tested the ability of CML-ovalbumin to ligate RAGE and activate cell signalling pathways.

[6] = system: Human umbilical vein endothelial cells (HUVEC); assay: Molt-4 binding assay on stimulated endothelial cells (cell surface VCAM-1 functional activity); assay type: cell-based; details: for binding of Molt-4 cells to Ecs: Example 2
Method: FIG. 4. Cellular activation studies: endothelial cells. HUVEC were incubated in the presence of the indicated mediators for 6 hrs. Where indicated, certain cells were preincubated with anti-RAGE/preimmune IgG for one hour. Cells were washed and incubated with ^51Cr-Molt-4 cells (bear VLA-4) for 1 hr. Bound radioactivity was eluted in the presence of SDS (1%) and counted in a gamma counter. Results are reported compared with Molt-4 cell binding to cells exposed to native ovalbumin (defined as “1”).
Molt-4 binding assays. Molt-4 binding assays were performed according to the general method of Marui et al (32). Human umbilical vein endothelial cells were stimulated with the indicated compound in the presence or absence of competitors for 6 hrs at 37° C. Molt-4 cells, which express VLA-4, ligand for VCAM-1, (ATCC) were grown in RPMI 1640 containing fetal bovine serum (10%). Radio labelling was accomplished by incubating Molt-4 cells (2×10^7 cells/ml) for 16 hrs at 37° C. in the above medium containing ^51-Cr (0.2 mCi/ml). Before the binding assay, unincorporated radioactivity was removed by washing cells with Hank's balanced salt solution, and then resuspending them in RPMI containing fetal bovine serum (10%) at 4×10^6 cells/ml. Molt-4 cells were incubated with endothelial cells for one hr at 37° C., and nonadherent cells were removed by washing twice with Medium 199 containing fetal bovine serum (1%); adherent cells were solubilized in SDS (1%), and radioactivity counted in a gamma counter.
To test if incubation of CML-ovalbumin or pentosidine-ovalbumin activated EC, specific AGEs were rendered free of endotoxin (Detoxigel columns (PIERCE®)) and tested for absence of endotoxin by limulus amebocyte assay (SIGMA®).

effect on binding of 125I-sRAGE to immobilized CML-BSA (sRAGE [1]): no effect
effect on binding of CML-BSA and CML-OVA to immobilized RAGE (RAGE): not
Molecule: N[C@@H](CCCCn1cccc2nc(NCCC[C@H](N)C(=O)O)nc1-2)C(=O)O [free pentosidine, Pentosidine]

Kd (RAGE): 60 nM
Kd (sRAGE [2]; read-out: KD of binding to sRAGE, AGE-protein (5 μg) immobilized on wells, increasing 125I-sRAGE +/- 50-fold excess unlabelled sRAGE): ~76 nM
Molecule: CML-BSA: carboxymethyl-lysine-modified bovine serum albumin, a synthetic AGE
activation of NF-κB in MPs (NF-κB [3]): activated NF-κB
mRNA for VCAM-1 in lung tissue (VCAM-1): increased mRNA for VCAM-1

specific binding to sRAGE/RAGE (sRAGE [2]): no specific binding
Molecule: pentosidine-BSA: pentosidine-modified bovine serum albumin
monocyte chemotaxis [4]: without effect
activation of NF-κB in MPs (NF-κB [3]): without effect
activation of NF-κB in Ecs (NF-κB [5]): without effect
binding of Molt-4 cells to Ecs [6]: without effect

effect on binding of CML-BSA and CML-OVA to immobilized RAGE (RAGE): not
Molecule: unmodified BSA: unmodified bovine serum albumin control protein
mRNA for VCAM-1 in lung tissue (VCAM-1): without effect

Kd (RAGE): 60 nM
B1: CML-ovalbumin: carboxymethyl-lysine-modified ovalbumin, a synthetic AGE (protein, UniProt P01012 2-386, looked up)
Ovalbumin: GSIGAASMEFCFDVFKELKVHHANENIFYCPIAIMSALAMVYLGAKDSTRTQINKVVRFDKLPGFGDSIEAQCGTSVNVHSSLRDILNQITKPNDVYSFSLASRLYAEERYPILPEYLQCVKELYRGGLEPINFQTAADQARELINSWVESQTNGIIRNVLQPSSVDSQTAMVLVNAIVFKGLWEKAFKDEDTQAMPFRVTEQESKPVQMMYQIGLFRVASMASEKMKILELPFASGTMSMLVLLPDEVSGLEQLESIINFEKLTEWTSSNVMEERKIKVYLPRMKMEEKYNLTSVLMAMGITDVFSSSANLSGISSAESLKISQAVHAAHAEINEAGREVVGSAEAGVDAASVSEEFRADHPFLFCIKHIATNAVLFFGRCVSP
modifications: carboxymethyl-lysine modified
notes: carboxymethyl-lysine-modified ovalbumin, a synthetic AGE

effect on binding of CML-BSA and CML-OVA to immobilized RAGE (RAGE): not
B2: native ovalbumin: unmodified ovalbumin control protein (protein, UniProt P01012 2-386, looked up)
Ovalbumin: B1 Ovalbumin

More lines, now with the values behind:

Molecule: N[C@@H](CCCCNCC(=O)O)C(=O)O [free CML, N^e-(Carboxymethyl)lysine]
effect on binding of 125I-sRAGE to immobilized CML-BSA (sRAGE [1]): no effect
effect on binding of CML-BSA and CML-OVA to immobilized RAGE (RAGE): not
specific binding to sRAGE/RAGE (sRAGE [2]): not

Molecule: CML-ovalbumin: carboxymethyl-lysine-modified ovalbumin, a synthetic AGE
monocyte chemotaxis [4]: stimulated monocyte chemotaxis in a dose-dependent manner
activation of NF-κB in MPs (NF-κB [3]): activated NF-κB
nuclear translocation / activation of NF-κB in HUVEC (NF-κB [5]): increased nuclear translocation of NF-κB
activation of NF-κB in Ecs (NF-κB [5]): activated NF-κB
binding of Molt-4 cells to Ecs [6]: increased binding of Molt-4 cells
increase in binding of 51Cr-Molt 4 cells to HUVEC ([6]; HUVEC exposed 6 hrs, relative to native ovalbumin (defined as 1)): 2.3 fold

Molecule: native ovalbumin: unmodified ovalbumin control protein
monocyte chemotaxis [4]: without effect
nuclear translocation / activation of NF-κB in HUVEC (NF-κB [5]): not
effect on binding of 51Cr-Molt 4 cells to HUVEC ([6]; HUVEC exposed 6 hrs): without effect

Molecule: pentosidine-ovalbumin: pentosidine-modified ovalbumin
nuclear translocation / activation of NF-κB in HUVEC (NF-κB [5]): not
effect on binding of 51Cr-Molt 4 cells to HUVEC ([6]; HUVEC exposed 6 hrs): without effect
